The record followed here is patent US20240034737A1, “Heterocyclic Derivatives as P2X7 Receptor Antagonists” (BREYE THERAPEUTICS APS, priority 2020, published 2024).

Each structure is given as a SMILES string.

One series deals with P2X7 receptor (Homo sapiens (Human), UniProt Q99572). The series can be described thus: Human P2X7 channel calcium-influx assay (Fluo-8 NW, FLIPR TETRA, Bz-ATP stimulation). In kind it is cell-based. The note with it: HEK-293 cells stably transfected with P2X7 receptor, Low Divalent Cation Assay Buffer, read-out: hP2X7 IC50. The essentials: (§1)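 HEK-293 cells stably expressing human or mouse P2X7, preloaded with Fluo-8 NW dye for 1 h at RT. Compounds added, Bz-ATP-evoked Ca2+ influx followed as fluorescence kinetics over 5 min on FLIPR TETRA; A438079 served as reference antagonist.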
Chain of P2X7 receptor (Q99572 whole entry): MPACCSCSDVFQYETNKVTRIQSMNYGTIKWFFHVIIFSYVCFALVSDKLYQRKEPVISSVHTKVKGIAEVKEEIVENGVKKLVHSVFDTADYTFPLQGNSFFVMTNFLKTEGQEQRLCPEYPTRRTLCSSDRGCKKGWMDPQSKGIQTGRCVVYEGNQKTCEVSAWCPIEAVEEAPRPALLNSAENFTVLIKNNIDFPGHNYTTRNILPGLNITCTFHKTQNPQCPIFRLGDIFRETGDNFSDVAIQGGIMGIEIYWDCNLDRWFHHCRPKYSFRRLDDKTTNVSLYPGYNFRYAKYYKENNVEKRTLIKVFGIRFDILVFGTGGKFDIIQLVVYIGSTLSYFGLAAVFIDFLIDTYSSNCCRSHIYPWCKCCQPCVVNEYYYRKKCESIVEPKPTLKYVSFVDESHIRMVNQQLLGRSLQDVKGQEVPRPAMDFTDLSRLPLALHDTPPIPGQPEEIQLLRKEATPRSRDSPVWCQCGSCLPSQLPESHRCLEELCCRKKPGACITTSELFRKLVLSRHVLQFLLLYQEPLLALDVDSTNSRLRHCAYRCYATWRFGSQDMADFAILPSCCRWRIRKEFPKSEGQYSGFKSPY

The subject of a further series is CYP4503A4. The series is described as follows: CYP4503A4 metabolic induction (mRNA expression) in human cryopreserved platable hepatocytes. In kind it is in vitro ADME. Conditions: 10 μM test compound, two days treatment, mRNA by QuantiGene Plex 2.0. On the procedure:
In Vitro Evaluation of Test Compounds for CYP4503A4 Metabolic Induction Using Human Liver Hepatocytes.
CYP induction assessment was performed using human cryopreserved platable hepatocytes. Test compound was assessed at three or six different concentrations in duplicate.
A sandwich culture of platable cryopreserved hepatocytes was used with one day recovery period after plating. Assessment of cell morphology and confluency was performed using a phase-contrast microscope for representative wells.
The plated hepatocyte cell monolayers were treated with test compound, negative and positive controls for two days changing medium every 24 hours. On the fourth day, assessment of cell morphology and confluency was repeated to ensure cell monolayer integrity. Assessment of cell morphology and confluency was performed using a phase-contrast microscope for representative wells.
Cell monolayers were assessed for test compound cytotoxicity by an adenosine triphosphate (ATP) content assay in a separate plate.
Expression levels of mRNA for CYP1A2, CYP2B6, and CYP3A4 were evaluated by the QuantiGene® Plex 2.0 methodology.

The target in the next series is mP2X7 (Mus musculus (Mouse), UniProt Q9Z1M0). The series is described as follows: mP2X7 channel calcium-influx assay (Fluo-8 NW, FLIPR TETRA, Bz-ATP stimulation). In kind it is cell-based. The essentials:
as §1

Chain of mP2X7 (Q9Z1M0 whole entry): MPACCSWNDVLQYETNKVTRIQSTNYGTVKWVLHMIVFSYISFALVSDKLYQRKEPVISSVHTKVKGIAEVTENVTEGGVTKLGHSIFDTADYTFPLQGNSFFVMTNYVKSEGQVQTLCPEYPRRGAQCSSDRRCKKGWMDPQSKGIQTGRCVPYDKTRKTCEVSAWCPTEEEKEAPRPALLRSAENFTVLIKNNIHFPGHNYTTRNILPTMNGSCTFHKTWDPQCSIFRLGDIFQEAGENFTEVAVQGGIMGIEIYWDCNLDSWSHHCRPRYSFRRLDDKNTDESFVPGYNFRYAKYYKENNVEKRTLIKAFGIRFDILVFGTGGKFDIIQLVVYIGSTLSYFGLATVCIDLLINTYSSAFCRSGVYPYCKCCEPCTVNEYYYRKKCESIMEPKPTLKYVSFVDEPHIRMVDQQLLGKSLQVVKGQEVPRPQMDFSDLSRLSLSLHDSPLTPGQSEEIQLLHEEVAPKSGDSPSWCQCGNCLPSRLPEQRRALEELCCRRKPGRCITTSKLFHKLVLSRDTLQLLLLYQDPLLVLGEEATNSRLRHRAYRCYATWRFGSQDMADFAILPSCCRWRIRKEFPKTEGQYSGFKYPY

A word on the IC50: it is the concentration that inhibits the measured activity by half. As for `O=C(NCC(c1scnc1C(F)F)N1CCC(COc2nccnc2F)CC1)c1c(F)cccc1Cl` (stereo not shown) [Example 106, 2-Chloro-N-{2-[4-(difluoromethyl)-1,3-thiazol-5-yl]-2-(4-{[(3-fluoropyrazin-2-yl)oxy]methyl}piperidin-1-yl)ethyl}-6-fluorobenzamide], the values for the IC50 at P2X7 receptor and on mP2X7 were 39.6 nM and 30.5 nM, respectively. For the same molecule, the “CYP4503A4 mRNA fold increase at 10 μM” value with CYP4503A4 is recorded as 4.9 fold.

As to `O=C(NCC(c1scnc1C(F)F)N1CCC(Oc2cncc(Cl)n2)CC1)c1c(F)cccc1Cl` (stereo not shown) [Example 76, 2-Chloro-N-(2-{4-[(6-chloropyrazin-2-yl)oxy]piperidin-1-yl}-2-[4-(difluoromethyl)-1,3-thiazol-5-yl]ethyl)-6-fluorobenzamide], the IC50 came out at 43.7 nM at P2X7 receptor and 28.9 nM at mP2X7. Moreover, the “CYP4503A4 mRNA fold increase at 10 μM” value in the series with CYP4503A4 amounted to 5.1 fold.

For the molecule `O=C(NCC(c1scnc1C(F)F)N1CCC(Oc2cncc3nncn23)CC1)c1c(F)cccc1Cl` (stereo not shown) [Example 45], the results for the IC50 at P2X7 receptor and on mP2X7 were 254 nM and 550 nM, respectively. Moreover, the “CYP4503A4 mRNA fold increase at 10 μM” value with CYP4503A4 was 1.9 fold.

Turning to `O=C(NCC(c1scnc1C(F)F)N1CCC(COc2ccc(F)nn2)CC1)c1c(F)cccc1Cl` (stereo not shown) [Example 104, 2-Chloro-N-{2-[4-(difluoromethyl)-1,3-thiazol-5-yl]-2-(4-{[(6-fluoropyridazin-3-yl)oxy]methyl}piperidin-1-yl)ethyl}-6-fluorobenzamide], the values for the IC50 on P2X7 receptor and on mP2X7 were 49.6 nM and 103 nM, respectively. In the series with CYP4503A4, the “CYP4503A4 mRNA fold increase at 10 μM” value is on record as 7.4 fold.

As for `N#Cc1cc(OCC2CCN(C(CNC(=O)c3c(F)cccc3Cl)c3scnc3C(F)F)CC2)ccn1` (stereo not shown) [Example 110, 2-Chloro-N-[2-(4-{[(2-cyanopyridin-4-yl)oxy]methyl}piperidin-1-yl)-2-[4-(difluoromethyl)-1,3-thiazol-5-yl]ethyl]-6-fluorobenzamide], the IC50 on P2X7 receptor is 40.6 nM; on mP2X7, 25 nM. Also, the “CYP4503A4 mRNA fold increase at 10 μM” value with CYP4503A4 stood at 6.5 fold.

Take `O=C(NCC(c1scnc1C(F)F)N1CCC(COc2ccnc(F)c2)CC1)c1c(F)cccc1Cl` (stereo not shown) [Example 125, 2-Chloro-N-{2-[4-(difluoromethyl)-1,3-thiazol-5-yl]-2-(4-{[(2-fluoropyridin-4-yl)oxy]methyl}piperidin-1-yl)ethyl}-6-fluorobenzamide]: the IC50 is 16.1 nM at P2X7 receptor and 23 nM on mP2X7. Moreover, in the series with CYP4503A4, the “CYP4503A4 mRNA fold increase at 10 μM” value turned out to be 5.5 fold.

Take `O=C(NCC(c1scnc1C(F)F)N1CCC(COc2nccn3nccc23)CC1)c1c(F)cccc1Cl` (stereo not shown) [Example 116, 2-Chloro-N-{2-[4-(difluoromethyl)-1,3-thiazol-5-yl]-2-[4-({pyrazolo[1,5-a]pyrazin-4-yloxy}methyl)piperidin-1-yl]ethyl}-6-fluorobenzamide]: the IC50 at P2X7 receptor stood at 28.5 nM; at mP2X7, 11.3 nM. Besides, the “CYP4503A4 mRNA fold increase at 10 μM” value with CYP4503A4 was 9.8 fold.

For `Cc1nsc(OC2CCN(C(CNC(=O)c3c(F)cccc3Cl)c3scnc3C(F)F)CC2)n1` (stereo not shown) [Example 11, 2-Chloro-N-{2-[4-(difluoromethyl)-1,3-thiazol-5-yl]-2-{4-[(3-methyl-1,2,4-thiadiazol-5-yl)oxy]piperidin-1-yl}ethyl}-6-fluorobenzamide], the IC50 on P2X7 receptor is 50.5 nM; on mP2X7, 183 nM. For the same molecule, the “CYP4503A4 mRNA fold increase at 10 μM” value with CYP4503A4 came to 7.9 fold.

With `O=C(NCC(c1scnc1C(F)F)N1CCC(Oc2nccn3cnnc23)CC1)c1c(F)cccc1Cl` (stereo not shown) [Example 46, 2-Chloro-N-{2-[4-(difluoromethyl)-1,3-thiazol-5-yl]-2-(4-{[1,2,4]triazolo[4,3-a]pyrazin-8-yloxy}piperidin-1-yl)ethyl}-6-fluorobenzamide], the results for the IC50 at P2X7 receptor and on mP2X7 were 264 nM and 658 nM, respectively. In the series with CYP4503A4, the “CYP4503A4 mRNA fold increase at 10 μM” value is 4.5 fold.

`Cc1ccc(OCC2CCN(C(CNC(=O)c3c(F)cccc3Cl)c3scnc3C(F)F)CC2)nn1` (stereo not shown) [Example 101, 2-Chloro-N-{2-[4-(difluoromethyl)-1,3-thiazol-5-yl]-2-(4-{[(6-methylpyridazin-3-yl)oxy]methyl}piperidin-1-yl)ethyl}-6-fluorobenzamide]: the IC50 at P2X7 receptor came to 87.8 nM; on mP2X7, 76.6 nM. Further, the “CYP4503A4 mRNA fold increase at 10 μM” value in the series on CYP4503A4 is on record as 3.9 fold.

In the case of `O=C(NCC(c1scnc1C(F)F)N1CCC(Oc2cncc(F)c2)CC1)c1c(F)cccc1Cl` (stereo not shown) [Example 5, 2-chloro-N-{2-[4-(difluoromethyl)-1,3-thiazol-5-yl]-2-{4-[(5-fluoropyridin-3-yl)oxy]piperidin-1-yl}ethyl}-6-fluorobenzamide], the results for the IC50 on P2X7 receptor and at mP2X7 were 23.7 nM and 26.9 nM, respectively. The “CYP4503A4 mRNA fold increase at 10 μM” value in the series with CYP4503A4 came out at 5.0 fold.

For the molecule `O=C(NCC(c1scnc1C(F)F)N1CCC(Oc2nccc(Cl)n2)CC1)c1c(F)cccc1Cl` (stereo not shown) [Example 75, 2-chloro-N-(2-{4-[(4-chloropyrimidin-2-yl)oxy]piperidin-1-yl}-2-[4-(difluoromethyl)-1,3-thiazol-5-yl]ethyl)-6-fluorobenzamide], the IC50 at P2X7 receptor worked out at 53.8 nM; on mP2X7 it was 82.1 nM. The “CYP4503A4 mRNA fold increase at 10 μM” value in the series on CYP4503A4 is 2.2 fold.

`O=C(NCC(c1scnc1C(F)F)N1CCC(COc2cc(F)ncn2)CC1)c1c(F)cccc1Cl` (stereo not shown) [Example 103, 2-Chloro-N-{2-[4-(difluoromethyl)-1,3-thiazol-5-yl]-2-(4-{[(6-fluoropyrimidin-4-yl)oxy]methyl}piperidin-1-yl)ethyl}-6-fluorobenzamide]: the results for the half-maximal inhibitory concentration (IC50) at P2X7 receptor and at mP2X7 were 21.1 nM and 34 nM, respectively. Besides, in the series on CYP4503A4, the “CYP4503A4 mRNA fold increase at 10 μM” value was 5.0 fold.

As for `COc1cc(OC2CCN(C(CNC(=O)c3c(F)cccc3Cl)c3scnc3C(F)F)CC2)ncn1` (stereo not shown) [Example 65, 2-Chloro-N-{2-[4-(difluoromethyl)-1,3-thiazol-5-yl]-2-{4-[(6-methoxypyrimidin-4-yl)oxy]piperidin-1-yl}ethyl}-6-fluorobenzamide], the IC50 on P2X7 receptor turned out to be 56.2 nM; at mP2X7, 96.2 nM. Also, in the series with CYP4503A4, the “CYP4503A4 mRNA fold increase at 10 μM” value is listed as 4.9 fold.

Turning to `Cc1cc(COC2CCN(C(CNC(=O)c3c(F)cccc3Cl)c3scnc3C(F)F)CC2)no1` (stereo not shown) [Example 8, 2-chloro-N-{2-[4-(difluoromethyl)-1,3-thiazol-5-yl]-2-{4-[(5-methyl-1,2-oxazol-3-yl)methoxy]piperidin-1-yl}ethyl}-6-fluorobenzamide], the IC50 at P2X7 receptor turned out to be 47.8 nM; at mP2X7, 170 nM. In addition, the “CYP4503A4 mRNA fold increase at 10 μM” value in the series on CYP4503A4 came out at 2.2 fold.

On to `O=C(NCC(c1scnc1C(F)F)N1CCC(COc2nc(C3CC3)ns2)CC1)c1c(F)cccc1Cl` (stereo not shown) [Example 87, 2-Chloro-N-[2-(4-{[(3-cyclopropyl-1,2,4-thiadiazol-5-yl)oxy]methyl}piperidin-1-yl)-2-[4-(difluoromethyl)-1,3-thiazol-5-yl]ethyl]-6-fluorobenzamide], for which the figures for the IC50 at P2X7 receptor and on mP2X7 were 36.9 nM and 30.4 nM, respectively. In addition, in the series with CYP4503A4, the “CYP4503A4 mRNA fold increase at 10 μM” value is given as 6.4 fold.

Consider `O=C(NCC(c1scnc1C(F)F)N1CCC(Oc2ccncc2)CC1)c1c(F)cccc1Cl` (stereo not shown) [Example 3, 2-chloro-N-{2-[4-(difluoromethyl)-1,3-thiazol-5-yl]-2-[4-(pyridin-4-yloxy)piperidin-1-yl]ethyl}-6-fluorobenzamide], for which the IC50 at P2X7 receptor stood at 37.7 nM; at mP2X7, 80.8 nM. Also, the “CYP4503A4 mRNA fold increase at 10 μM” value in the series with CYP4503A4 worked out at 4.4 fold.

Turning to `O=C(NCC(c1scnc1C(F)F)N1CCC(Oc2ccc(F)nn2)CC1)c1c(F)cccc1Cl` (stereo not shown) [Example 32, 2-Chloro-N-{2-[4-(difluoromethyl)-1,3-thiazol-5-yl]-2-{4-[(6-fluoropyridazin-3-yl)oxy]piperidin-1-yl}ethyl}-6-fluorobenzamide], the IC50 at P2X7 receptor amounted to 21.3 nM; at mP2X7, 82 nM. For the same molecule, in the series with CYP4503A4, the “CYP4503A4 mRNA fold increase at 10 μM” value is recorded as 6.0 fold.

For `O=C(NCC(c1scnc1C(F)F)N1CCC(Oc2ncccc2F)CC1)c1c(F)cccc1Cl` (stereo not shown) [Example 7, 2-chloro-N-{2-[4-(difluoromethyl)-1,3-thiazol-5-yl]-2-{4-[(3-fluoropyridin-2-yl)oxy]piperidin-1-yl}ethyl}-6-fluorobenzamide], the figures for the IC50 on P2X7 receptor and at mP2X7 were 32.6 nM and 28.9 nM, respectively. Moreover, in the series with CYP4503A4, the “CYP4503A4 mRNA fold increase at 10 μM” value is on record as 5.6 fold.

Consider `Cc1c(F)ncnc1OC1CCN(C(CNC(=O)c2c(F)cccc2Cl)c2scnc2C(F)F)CC1` (stereo not shown) [Example 40, 2-Chloro-N-{2-[4-(difluoromethyl)-1,3-thiazol-5-yl]-2-{4-[(6-fluoro-5-methylpyrimidin-4-yl)oxy]piperidin-1-yl}ethyl}-6-fluorobenzamide], for which the IC50 was 32.7 nM at P2X7 receptor and 50.6 nM on mP2X7.

Take `O=C(NCC(c1scnc1C(F)F)N1CCC(Oc2nc(-c3ccccc3)no2)CC1)c1c(F)cccc1Cl` (stereo not shown) [Example 24, 2-Chloro-N-{2-[4-(difluoromethyl)-1,3-thiazol-5-yl]-2-{4-[(3-phenyl-1,2,4-oxadiazol-5-yl)oxy]piperidin-1-yl}ethyl}-6-fluorobenzamide]: the IC50 at P2X7 receptor was found to be 98.1 nM; at mP2X7, 32.4 nM.
